In patent publication US20230122344A1, “ANTAGONISTS OF THE MUSCARINIC ACETYLCHOLINE RECEPTOR M4” (Vanderbilt University, priority 2019, published 2023):

Biological target: T1, Human M4 (Homo sapiens, UniProt P08173)
T1 construct: expressed in transfected cells; host or cells: CHO-K1 (ATCC), co-transfected with chimeric G protein Gqi5
T1 sequence (P08173 1-479): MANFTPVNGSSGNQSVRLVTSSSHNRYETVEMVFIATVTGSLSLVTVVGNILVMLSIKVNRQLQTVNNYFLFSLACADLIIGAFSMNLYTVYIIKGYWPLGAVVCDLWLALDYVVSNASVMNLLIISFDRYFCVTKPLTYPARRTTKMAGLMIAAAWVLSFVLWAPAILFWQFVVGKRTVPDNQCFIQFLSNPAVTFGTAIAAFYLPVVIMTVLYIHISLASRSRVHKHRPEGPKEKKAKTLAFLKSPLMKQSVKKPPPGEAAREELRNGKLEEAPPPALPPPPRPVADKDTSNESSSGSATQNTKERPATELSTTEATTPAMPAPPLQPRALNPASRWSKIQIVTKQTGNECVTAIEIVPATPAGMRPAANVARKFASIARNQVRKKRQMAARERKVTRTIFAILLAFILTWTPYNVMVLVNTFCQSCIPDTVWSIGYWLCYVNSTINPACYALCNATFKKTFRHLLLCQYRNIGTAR
Test: mAChR M4 cell-based functional assay (calcium flux, antagonism of EC80 acetylcholine response)
Settings: M4/Gqi5/CHO-K1 cells; for remaining activity at 30 µM: CHO-K1, % ACh maximum at 30 μM, read-out: Human M4 Emin; for IC50: decrease of response elicited by EC80 acetylcholine
Summary of the method: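 CHO-K1 cells stably expressing human or rat M4 with Gqi5, Fluo-4 loaded; calcium measured by fluorescence ratio on FDSS. Compound added, then EC20 acetylcholine at 143 s and EC80 at 268 s; IC50 from decrease of EC80 response, four-parameter logistic fit.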

Row | SMILES | remaining activity at 30 µM [%] | IC50 [nM]
1 | Fc1cc(F)c(F)c(-c2nnc(N[C@H]3C[C@@H]4CN(CC5CCOCC5)C[C@@H]4C3)cc2C(F)F)c1 [compound 41, (3aR,5s,6aS)-N-(5-(difluoromethyl)-6-(2,3,5-trifluorophenyl)pyridazin-3-yl)-2-((tetrahydro-2H-pyran-4-yl)methyl)octahydrocyclopenta[c]pyrrol-5-amine] | 3 | 0.33
2 | COc1ccc(F)cc1-c1nnc(N[C@H]2C[C@@H]3CN(CC4CCOCC4)C[C@@H]3C2)cc1C(F)F [compound 42, (3aR,5s,6aS)-N-(5-(difluoromethyl)-6-(5-fluoro-2-methoxyphenyl)pyridazin-3-yl)-2-((tetrahydro-2H-pyran-4-yl)methyl)octahydrocyclopenta[c]pyrrol-5-amine] | 2 | 0.67
3 | Cc1ccc(F)cc1-c1nnc(N[C@H]2C[C@@H]3CN(CC4CCOCC4)C[C@@H]3C2)cc1C(F)F [compound 43, (3aR,5s,6aS)-N-(5-(difluoromethyl)-6-(5-fluoro-2-methylphenyl)pyridazin-3-yl)-2-((tetrahydro-2H-pyran-4-yl)methyl)octahydrocyclopenta[c]pyrrol-5-amine] | 2 | 0.57
4 | Fc1ccc(Cl)c(-c2nnc(N[C@H]3C[C@@H]4CN(CC5CCOCC5)C[C@@H]4C3)cc2C(F)F)c1 [compound 44, (3aR,5s,6aS)-N-(6-(2-chloro-5-fluorophenyl)-5-(difluoromethyl)pyridazin-3-yl)-2-((tetrahydro-2H-pyran-4-yl)methyl)octahydrocyclopenta[c]pyrrol-5-amine] | 2 | 0.65
5 | [2H]C([2H])(C1CCOCC1)N1C[C@H]2C[C@H](Nc3nnc(-c4cc(F)cc(F)c4F)cc3C(C)(F)F)C[C@H]2C1 [compound 45, (3aR,5s,6aS)-N-(4-(1,1-difluoroethyl)-6-(2,3,5-trifluorophenyl)pyridazin-3-yl)-2-((tetrahydro-2H-pyran-4-yl)methyl-d2)octahydrocyclopenta[c]pyrrol-5-amine] | 3 | 54.4
6 | CC(c1ccccn1)N1C[C@H]2C[C@H](Nc3cc(C(F)F)c(-c4cc(F)cc(F)c4F)nn3)C[C@H]2C1 (stereo partly drawn) [compound 50, (3aR,5s,6aS)-N-(5-(difluoromethyl)-6-(2,3,5-trifluorophenyl)pyridazin-3-yl)-2-(1-(pyridin-2-yl)ethyl)octahydrocyclopenta[c]pyrrol-5-amine] | 2 | 34.8
7 | [2H]C(C)(c1ccccn1)N1C[C@H]2C[C@H](Nc3cc(C(F)F)c(-c4cc(F)cc(F)c4F)nn3)C[C@H]2C1 (stereo partly drawn) [compound 51, (3aR,5s,6aS)-N-(5-(difluoromethyl)-6-(2,3,5-trifluorophenyl)pyridazin-3-yl)-2-(1-(pyridin-2-yl)ethyl-1-d)octahydrocyclopenta[c]pyrrol-5-amine] | 2 | 35
8 | Fc1cc(F)c(F)c(-c2nnc(N[C@H]3C[C@@H]4CN(CCC5CCOCC5)C[C@@H]4C3)cc2C(F)F)c1 [compound 52, (3aR,5s,6aS)-N-(5-(difluoromethyl)-6-(2,3,5-trifluorophenyl)pyridazin-3-yl)-2-(2-(tetrahydro-2H-pyran-4-yl)ethyl)octahydrocyclopenta[c]pyrrol-5-amine] | 2 | 1.05
9 | Fc1cc(F)c(F)c(-c2nnc(N[C@H]3C[C@@H]4CN(CC5CCCCC5)C[C@@H]4C3)cc2C(F)F)c1 [compound 53, (3aR,5s,6aS)-2-(cyclohexylmethyl)-N-(5-(difluoromethyl)-6-(2,3,5-trifluorophenyl)pyridazin-3-yl)octahydrocyclopenta[c]pyrrol-5-amine] | 2 | 19.1
10 | OC1(CN2C[C@H]3C[C@H](Nc4cc(C(F)F)c(-c5cc(F)cc(F)c5F)nn4)C[C@H]3C2)CCCCC1 [compound 54, 1-(((3aR,5s,6aS)-5-((5-(difluoromethyl)-6-(2,3,5-trifluorophenyl)pyridazin-3-yl)amino)hexahydrocyclopenta[c]pyrrol-2(1H)-yl)methyl)cyclohexan-1-ol] | 1 | 3.42
11 | OC1(CN2C[C@H]3C[C@H](Nc4cc(C(F)F)c(-c5cc(F)cc(F)c5F)nn4)C[C@H]3C2)CCOCC1 [compound 55, 4-(((3aR,5s,6aS)-5-((5-(difluoromethyl)-6-(2,3,5-trifluorophenyl)pyridazin-3-yl)amino)hexahydrocyclopenta[c]pyrrol-2(1H)-yl)methyl)tetrahydro-2H-pyran-4-ol] | 2 | 3.12
12 | Fc1cc(F)c(F)c(-c2nnc(N[C@H]3C[C@@H]4CN(C[C@@H]5COCCO5)C[C@@H]4C3)cc2C(F)F)c1 [compound 56, (3aR,5s,6aS)-2-(((R)-1,4-dioxan-2-yl)methyl)-N-(5-(difluoromethyl)-6-(2,3,5-trifluorophenyl)pyridazin-3-yl)octahydrocyclopenta[c]pyrrol-5-amine] | 2 | 0.66
13 | Fc1cc(F)c(F)c(-c2nnc(N[C@H]3C[C@@H]4CN(C[C@H]5COCCO5)C[C@@H]4C3)cc2C(F)F)c1 [compound 57, (3aR,5s,6aS)-2-(((S)-1,4-dioxan-2-yl)methyl)-N-(5-(difluoromethyl)-6-(2,3,5-trifluorophenyl)pyridazin-3-yl)octahydrocyclopenta[c]pyrrol-5-amine] | 3 | 15.5
14 | Fc1ccc(F)c(-c2cc(C(F)F)c(N[C@H]3C[C@@H]4CN(CC5CCOCC5)C[C@@H]4C3)nn2)c1 [compound 58, (3aR,5s,6aS)-N-(4-(difluoromethyl)-6-(2,5-difluorophenyl)pyridazin-3-yl)-2-((tetrahydro-2H-pyran-4-yl)methyl)octahydrocyclopenta[c]pyrrol-5-amine] | 3 | 6.42
15 | Cc1ccc(F)cc1-c1cc(C(F)F)c(N[C@H]2C[C@@H]3CN(CC4CCOCC4)C[C@@H]3C2)nn1 [compound 59, (3aR,5s,6aS)-N-(4-(difluoromethyl)-6-(5-fluoro-2-methylphenyl)pyridazin-3-yl)-2-((tetrahydro-2H-pyran-4-yl)methyl)octahydrocyclopenta[c]pyrrol-5-amine] | 3 | 1.2
16 | [2H]C([2H])(C1CCOCC1)N1C[C@H]2C[C@H](Nc3nnc(-c4cc(F)ccc4F)c(C)c3C)C[C@H]2C1 [compound 60, (3aR,5s,6aS)-N-(6-(2,5-difluorophenyl)-4,5-dimethylpyridazin-3-yl)-2-((tetrahydro-2H-pyran-4-yl)methyl-d2)octahydrocyclopenta[c]pyrrol-5-amine] | 2 | 0.66
17 | [2H]C([2H])(C1CCOCC1)N1C[C@H]2C[C@H](Nc3nnc(-c4ccccc4F)c(C)c3C)C[C@H]2C1 [compound 61, (3aR,5s,6aS)-N-(6-(2-fluorophenyl)-4,5-dimethylpyridazin-3-yl)-2-((tetrahydro-2H-pyran-4-yl)methyl-d2)octahydrocyclopenta[c]pyrrol-5-amine] | 2 | 0.52
18 | [2H]C([2H])(C1CCOCC1)N1C[C@H]2C[C@H](Nc3nnc(-c4cccc(F)c4)c(C)c3C)C[C@H]2C1 [compound 62, (3aR,5s,6aS)-N-(6-(3-fluorophenyl)-4,5-dimethylpyridazin-3-yl)-2-((tetrahydro-2H-pyran-4-yl)methyl-d2)octahydrocyclopenta[c]pyrrol-5-amine] | 2 | 0.71
19 | [2H]C([2H])(C1CCOCC1)N1C[C@H]2C[C@H](Nc3nnc(-c4cc(F)ccc4C)c(C)c3C)C[C@H]2C1 [compound 63, (3aR,5s,6aS)-N-(6-(5-fluoro-2-methylphenyl)-4,5-dimethylpyridazin-3-yl)-2-((tetrahydro-2H-pyran-4-yl)methyl-d2)octahydrocyclopenta[c]pyrrol-5-amine] | 2 | 0.92
20 | Cc1c(-c2cc(F)ccc2F)nnc(N[C@H]2C[C@@H]3CN(CC4CCOCC4)C[C@@H]3C2)c1C#N [compound 64, 6-(2,5-difluorophenyl)-5-methyl-3-(((3aR,5s,6aS)-2-((tetrahydro-2H-pyran-4-yl)methyl)octahydrocyclopenta[c]pyrrol-5-yl)amino)pyridazine-4-carbonitrile] | 3 | 7.69
21 | Cc1c(Cl)nnc(N[C@H]2C[C@@H]3CN(CC4CCOCC4)C[C@@H]3C2)c1C#N [compound 65, 6-chloro-5-methyl-3-(((3aR,5s,6aS)-2-((tetrahydro-2H-pyran-4-yl)methyl)octahydrocyclopenta[c]pyrrol-5-yl)amino)pyridazine-4-carbonitrile] | 8 | 2930
